In patent US20130274127A1, “GENE EXPRESSION MARKERS FOR PREDICTION OF RESPONSE TO PHOSPHOINOSITIDE 3-KINASE INHIBITORS” (GENOMIC HEALTH, INC., priority 2012, published 2013):
Read-outs that look alike come from different tables or passages of the source.

Assays:
MALME-3M = assay: NCI-60 in vitro drug sensitivity testing (SRB); format: cell-based; details: Homo sapiens, read-out: GDC-0941 GI50
From the text: (§1) Cell lines used in this study were obtained from the National Cancer Institute Developmental Therapeutics program (NCI DTP) and were maintained in RPMI 1640 media (Invitrogen, Grand Island, N.Y.) containing 10% Fetal Bovine Serum (ATCC, Manassas, Va.). Cell lines were used within six months of receipt from the NCI DTP, abrogating the need for reauthentication.
(§2) 14, 2010 and Aug. 9, 2010.

K-562 = assay: NCI-60 in vitro drug sensitivity testing (SRB); format: cell-based; details: Homo sapiens, K562, read-out: GDC-0941 GI50
From the text: as §1, §2

SF-268 = assay: NCI-60 in vitro drug sensitivity testing (SRB); format: cell-based; details: Homo sapiens, SF-268, read-out: GDC-0941 GI50
From the text: as §1, §2

HT29 = assay: NCI-60 in vitro drug sensitivity testing (SRB); format: cell-based; details: Homo sapiens, HT-29, read-out: GDC-0941 GI50
From the text: as §1, §2

SK-MEL-2 = assay: NCI-60 in vitro drug sensitivity testing (SRB); format: cell-based; details: Homo sapiens, SK-MEL-2, read-out: GDC-0941 GI50
From the text: as §1, §2

T-47D = assay: NCI-60 in vitro drug sensitivity testing (SRB); format: cell-based; details: Homo sapiens, T47D, read-out: GDC-0941 GI50
From the text: as §1, §2

RXF 393 = assay: NCI-60 in vitro drug sensitivity testing (SRB); format: cell-based; details: Homo sapiens, RXF 393, read-out: GDC-0941 GI50
From the text: as §1, §2

UACC-62 = assay: NCI-60 in vitro drug sensitivity testing (SRB); format: cell-based; details: Homo sapiens, UACC-62, read-out: GDC-0941 GI50
From the text: as §1, §2

SK-MEL-28 = assay: NCI-60 in vitro drug sensitivity testing (SRB); format: cell-based; details: Homo sapiens, SK-MEL-28, read-out: GDC-0941 GI50
From the text: as §1, §2

LOX IMVI = assay: NCI-60 in vitro drug sensitivity testing (SRB); format: cell-based; details: Homo sapiens, read-out: GDC-0941 GI50
From the text: as §1, §2

SNB-75 = assay: NCI-60 in vitro drug sensitivity testing (SRB); format: cell-based; details: Homo sapiens, SNB-75, read-out: GDC-0941 GI50
From the text: as §1, §2

EKVX = assay: NCI-60 in vitro drug sensitivity testing (SRB); format: cell-based; details: Homo sapiens, read-out: GDC-0941 GI50
From the text: as §1, §2

IGROV1 = assay: NCI-60 in vitro drug sensitivity testing (SRB); format: cell-based; details: Homo sapiens, IGROV-1, read-out: GDC-0941 GI50
From the text: as §1, §2

CCRF-CEM = assay: NCI-60 in vitro drug sensitivity testing (SRB); format: cell-based; details: Homo sapiens, read-out: GDC-0941 GI50
From the text: as §1, §2

SN12C = assay: NCI-60 in vitro drug sensitivity testing (SRB); format: cell-based; details: Homo sapiens, read-out: GDC-0941 GI50
From the text: as §1, §2

U251 = assay: NCI-60 in vitro drug sensitivity testing (SRB); format: cell-based; details: Homo sapiens, U-251, read-out: GDC-0941 GI50
From the text: as §1, §2

HS 578T = assay: NCI-60 in vitro drug sensitivity testing (SRB); format: cell-based; details: Homo sapiens, read-out: GDC-0941 GI50
From the text: as §1, §2

NCI-H226 = assay: NCI-60 in vitro drug sensitivity testing (SRB); format: cell-based; details: Homo sapiens, NCI-H226, read-out: GDC-0941 GI50
From the text: as §1, §2

SF-539 = assay: NCI-60 in vitro drug sensitivity testing (SRB); format: cell-based; details: Homo sapiens, SF-539, read-out: GDC-0941 GI50
From the text: as §1, §2

KM12 = assay: NCI-60 in vitro drug sensitivity testing (SRB); format: cell-based; details: Homo sapiens, KM12, read-out: GDC-0941 GI50
From the text: as §1, §2

SF-295 = assay: NCI-60 in vitro drug sensitivity testing (SRB); format: cell-based; details: Homo sapiens, SF-295, read-out: GDC-0941 GI50
From the text: as §1, §2

ACHN = assay: NCI-60 in vitro drug sensitivity testing (SRB); format: cell-based; details: Homo sapiens, read-out: GDC-0941 GI50
From the text: as §1, §2

OVCAR-8 = assay: NCI-60 in vitro drug sensitivity testing (SRB); format: cell-based; details: Homo sapiens, OVCAR-8, read-out: GDC-0941 GI50
From the text: as §1, §2

NCI-H23 = assay: NCI-60 in vitro drug sensitivity testing (SRB); format: cell-based; details: Homo sapiens, NCI-H23, read-out: GDC-0941 GI50
From the text: as §1, §2

COLO 205 = assay: NCI-60 in vitro drug sensitivity testing (SRB); format: cell-based; details: Homo sapiens, COLO 205, read-out: GDC-0941 GI50
From the text: as §1, §2

MDA-MB-468 = assay: NCI-60 in vitro drug sensitivity testing (SRB); format: cell-based; details: Homo sapiens, MDA-MB-468, read-out: GDC-0941 GI50
From the text: as §1, §2

[1] = test system: NCI-60 tumor cell line collection; assay: NCI-60 in vitro drug sensitivity testing, whole panel; format: cell-based, human; details: for GI50: Homo sapiens, all 60 NCI-60 cell lines
From the text: The NCI-60 tumor cell line collection is a panel of 60 diverse human cancer cell lines.
as §1, §2

OVCAR-4 = assay: NCI-60 in vitro drug sensitivity testing (SRB); format: cell-based; details: Homo sapiens, OVCAR-4, read-out: GDC-0941 GI50
From the text: as §1

MCF7 = assay: NCI-60 in vitro drug sensitivity testing (SRB); format: cell-based; details: Homo sapiens, MCF7, read-out: GDC-0941 GI50
From the text: as §1

MDA-MB-231 = assay: NCI-60 in vitro drug sensitivity testing (SRB); format: cell-based; details: Homo sapiens, MDA-MB-231, read-out: GDC-0941 GI50
From the text: as §1

In the case of `CS(=O)(=O)N1CCN(Cc2cc3nc(-c4cccc5[nH]ncc45)nc(N4CCOCC4)c3s2)CC1` [GDC-0941], the GI50 (MALME-3M) is reported as 138 nM, the GI50 (K-562) is reported as 3.47 µM and the GI50 (SF-268) is reported as 741 nM. For the same molecule, the GI50 (HT29) was 120 nM, the GI50 (SK-MEL-2) was 759 nM and the GI50 (T-47D) was 11 nM. The GI50 (RXF 393) was 251 nM, the GI50 (UACC-62) was 112 nM and the GI50 (SK-MEL-28) was 617 nM. For the same molecule, the GI50 (LOX IMVI) was 708 nM, the GI50 (SNB-75) was 14 nM and the GI50 (EKVX) was 195 nM. It also gave a GI50 (IGROV1) of 26 nM, a GI50 (CCRF-CEM) of 2340 nM and a GI50 (SN12C) of 229 nM. For the same molecule, the GI50 (U251) was 1050 nM, the GI50 (HS 578T) was 71 nM and the GI50 (NCI-H226) was 1230 nM. The GI50 (SF-539) was 251 nM, the GI50 (KM12) was 708 nM and the GI50 (SF-295) was 110 nM. It also gave a GI50 (ACHN) of 162 nM, a GI50 (OVCAR-8) of 646 nM and a GI50 (NCI-H23) of 2290 nM. The GI50 (COLO 205) was 269 nM, the GI50 (MDA-MB-468) was 110 nM and the GI50 ([1]; read-out: GI50 values, range over the panel) was 11 to 3800 nM. For the same molecule, the GI50 ([1]; read-out: Mean GI50 for all cell lines) was 660 nM, the “Anti-proliferative activity across the panel” value ([1]; nine tumor types represented in the NCI-60 cell line panel) was “broad anti-proliferative activity” and the GI50 (OVCAR-4) was 3.8 µM. It also gave a GI50 (MCF7) of 55 nM and a GI50 (MDA-MB-231) of 1480 nM.
